The target in this experiment is T1, Chk2 (Homo sapiens, UniProt O96017).
T1 construct: made in house; host or cells: E. coli BL21 Star (Invitrogen)
The experiment in a line: Chk2 inhibitor IMAP assay (high-throughput Chk2 screening assay). The note with it: IMAP fluorescence polarization assay, 10 μM ATP. The format is biochemical. As to the method: Compounds set forth in Table 1 were tested in the Chk2 inhibitor IMAP assay described herein in Example 6.84. […] The letters given for the Chk2 EC50 values in Table 1 represent the following ranges: A=<100 nM; B=100-300 nM; C=300-1000 nM; D=1-10 μM; and E>10 μM.
Compounds can be screened for Chk2 inhibitory activity using a high-throughput screening assay based in the immobilized metal ion affinity-based fluorescence polarization (IMAP) assay developed by Molecular Devices. This assay is based on the high affinity binding of phosphate by immobilized metal (MIII) coordination complexes on nanoparticles. A fluorescein-labeled peptide substrate is used as the substrate for the kinase activity of Chk2 in the assay. The IMAP binding reagent stops the kinase reaction. The binding of the binding reagent results in a change in the rate of molecular motion of the peptide and causes an increase in the fluorescence polarization value observed for the fluorescein label attached to the end of the peptide. Thus, inhibition of Chk2 would result in a decrease in fluorescence polarization compared to control.
A specific protocol for screening Compounds for Chk2 inhibitory activity follows.
A Compound is supplied at 1 mM in 0.5 μl DMSO on 384 well plates (such as Greiner or Corning). After thawing, 5 μl DMSO is added to the drug plate. The drug plate is then incubated for 10 minutes to solubilize the Compound. An additional 19.5 μl of reaction buffer (10× stock prepared using 100 mM Tris-HCl, 100 mM MgCl2, 1% BSA, pH 7.2, stored at 4° C.)+1 mM DDT is added to bring the Compound to 4× final concentration. A positive control is also prepared at 4× final concentration. The following control wells are used: less enzyme control (all reagents except enzyme; 5 μl/well), less Compound control (all reagents except Compound; 5 μl/well), positive control (all reagents plus staurosporine at a final concentration of 5 μM; 5 μl/well).
Reagents are then added in the following order to give the following final concentration: 2.5 μl ATP/Chk2tide (Molecular Devices) (10 μM/100 nM final concentration), 1.25 μl Compound (5 μM final concentration inf 5.5% DMSO), and 1.25 μl Chk2 (1:500, 2.4 μg/mL final concentration).
Plates are covered and incubated at room temperature for 60 minutes.
IMAP binding reagent (Molecular Devices) is diluted 1:400 into binding buffer (Molecular Devices). 15 μl of this solution is then added to all wells and the plates are covered and incubated for 30 minutes.
Plates are read using a Tecan Ultra under the fluorescence polarization mode. Gain is set to the less enzyme and less Compound wells for each plate. Excitation 485 nm, emmission 535 nm, Z position 12519 and flashes 5 are used as settings. Raw data from the Tecan reader is imported into an access database for analysis.
In general terms: Fluorescence polarisation rises when a labelled molecule tumbles more slowly, as on binding a larger partner.

Where only a bound is given, the exact number is not on record here.

T1 sequence (O96017 whole entry): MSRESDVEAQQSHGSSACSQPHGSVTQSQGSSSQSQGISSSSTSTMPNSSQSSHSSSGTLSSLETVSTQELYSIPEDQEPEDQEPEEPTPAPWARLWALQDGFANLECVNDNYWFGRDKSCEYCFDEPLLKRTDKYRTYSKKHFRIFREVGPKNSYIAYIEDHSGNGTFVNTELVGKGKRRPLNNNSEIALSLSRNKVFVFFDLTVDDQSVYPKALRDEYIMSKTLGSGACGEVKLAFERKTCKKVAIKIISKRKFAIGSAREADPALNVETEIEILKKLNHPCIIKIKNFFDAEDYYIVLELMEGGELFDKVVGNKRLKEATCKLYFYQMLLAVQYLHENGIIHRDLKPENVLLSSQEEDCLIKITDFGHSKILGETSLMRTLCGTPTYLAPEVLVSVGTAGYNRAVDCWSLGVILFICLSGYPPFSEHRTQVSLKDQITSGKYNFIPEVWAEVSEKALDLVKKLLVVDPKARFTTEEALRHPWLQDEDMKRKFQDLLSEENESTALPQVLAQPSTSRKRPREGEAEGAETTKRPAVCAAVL

The EC50 is the concentration needed to bring the measured effect to its halfway point. Higher therefore signals weaker potency. As for `CC(=NNC(=N)N)c1ccc(NC(=O)Nc2ccc3c(c2)CCC(C)C3=NNC(=N)N)cc1` (stereo not drawn) [Compound 5], the 50% effective concentration (EC50) lay in the range of 300 to 1000 nM.

On to `CCCC(=NNC(=N)N)c1ccc2[nH]c(C(=O)Nc3ccc4cc[nH]c4c3)cc2c1` (single isomer, unassigned) [Compound 112], for which the EC50 was < 100 nM.

`CC(=NNC(=N)N)c1ccc(NC(=O)Nc2ccc3c(c2)CCC3=NNC(=N)N)cc1` [Compound 6] yielded an EC50 of 300 to 1000 nM.

`C/C(=N\NC(=N)N)c1ccc(NC(=O)c2cc3cc(Cl)ccc3[nH]2)cc1` [Compound 67] showed a concentration for a half-maximal effect (EC50) of 1000 to 10000 nM.

`COc1ccc2cc(C(=O)Nc3ccc(/C(C)=N/NC(=N)N)cc3)[nH]c2c1` [Compound 74]: the EC50 was 300 to 1000 nM.

`CC(C)CC(=NNC(=N)N)c1ccc2[nH]c(C(=O)Nc3ccc4cc[nH]c4c3)cc2c1` (single isomer, unassigned) [Compound 123]: the EC50 is < 100 nM.

Consider `C/C(=N\NC(=N)N)c1ccc2[nH]c(C(=O)Nc3ccccn3)cc2c1` [Compound 104], for which the concentration giving a half-maximal response (EC50) was > 10000 nM.

As for `C/C(=N\NC(=N)N)c1ccc2[nH]c(C(=O)Nc3ccc4cnccc4n3)cc2c1` [Compound 122], the concentration giving a half-maximal response (EC50) was > 10000 nM.

Consider `COC(=O)c1ccc(NC(=O)Nc2ccc(/C(C)=N/NC(=N)N)cc2)cc1` [Compound 56], for which the EC50 fell in the range of 1000 to 10000 nM.

On to `C/C(=N\NC(=N)N)c1ccc(NC(=O)c2cc3ccc(Cl)cc3[nH]2)cc1` [Compound 94], for which the concentration for a half-maximal effect (EC50) was 300 to 1000 nM.

In turn, `C/C(=N\NC(=N)N)c1ccc(NC(=O)Nc2ccc(/C(C)=N/NC(=N)N)c(C)c2)cc1` [Compound 4] displayed a 50% effective concentration (EC50) of 100 to 300 nM.

`C/C(=N\NC(=N)N)c1ccc(NC(=O)Nc2ccc(Cl)cc2)cc1` [Compound 57] yielded a concentration for a half-maximal effect (EC50) of 1000 to 10000 nM.

Consider `CC(=NNC(=N)N)c1ccc(NC(=O)Nc2ccc(C(C)CNC(=N)N)cc2)cc1` (stereo not drawn) [Compound 62], for which the concentration giving a half-maximal response (EC50) was > 10000 nM.

Consider `CNC(=O)Oc1ccc2[nH]c(C(=O)Nc3ccc(/C(C)=N\NC(=N)N)cc3)cc2c1` [Compound 21], for which the EC50 is 100 to 300 nM.

Take `CC(=O)c1ccc2[nH]c(C(=O)Nc3ccc(/C(C)=N/NC(=N)N)cc3)cc2c1` [Compound 71]: the concentration for a half-maximal effect (EC50) is < 100 nM.

`C/C(=N\NC(=N)N)c1ccc(NC(=O)c2cc3cc(N)ccc3[nH]2)cc1` [Compound 25] returned an EC50 of 300 to 1000 nM.

Regarding `CCNc1ccc2cc(C(=O)Nc3ccc(/C(C)=N/NC(=N)N)cc3)[nH]c2c1` [Compound 92], the EC50 lay in the range of 300 to 1000 nM.

`C/C(=N\NC(=N)N)c1ccc2[nH]c(C(=O)Nc3ccc4nc[nH]c4c3)cc2c1` [Compound 121]: the concentration giving a half-maximal response (EC50) was < 100 nM.

For the molecule `C/C(=N\NC(=N)N)c1ccc(NC(=O)Nc2ccc(/C(=N/NC(=N)N)C(C)C)cc2)cc1` [Compound 51], the half-maximal effective concentration (EC50) lay in the range of 1000 to 10000 nM.

Molecule `C/C(=N\NC(=N)N)c1ccc(NC(=O)c2cc3cccc(NS(N)(=O)=O)c3[nH]2)cc1` [Compound 95] displayed a concentration for a half-maximal effect (EC50) of 1000 to 10000 nM.

In turn, `C/C(=N\NC(=N)N)c1ccc2[nH]c(C(=O)Nc3ccc4cc[nH]c4c3)cc2c1` [Compound 81] displayed an EC50 of 300 to 1000 nM.

`C/C(=N/NC(=N)N)c1ccc(NC(=O)Nc2ccc(/C(C)=N/N=C(\N)c3ccccn3)cc2)cc1` [Compound 14] registered a half-maximal effective concentration (EC50) of 300 to 1000 nM.

On to `C/C(=N\NC(=N)N)c1ccc(NC(=O)Nc2ccc(/C(=N/NC(=N)N)c3ccccc3)cc2)cc1` [Compound 54], for which the EC50 lay in the range of 1000 to 10000 nM.

Take `C/C(=N\NC(=N)N)c1ccc(NC(=O)c2cc3cc(C(CC(C)C)=NNC(=N)N)ccc3[nH]2)cc1` [Compound 130]: the EC50 is < 100 nM.

`C/C(=N\NC(=N)N)c1ccc(NC(=O)c2cc3cc(Br)ccc3o2)cc1` [Compound 32]: the EC50 lay in the range of 1000 to 10000 nM.

The molecule `COc1ccc2[nH]c(C(=O)Nc3ccc4c(c3)CCC/C4=N\NC(=N)N)cc2c1` [Compound 105] gave a 50% effective concentration (EC50) of 300 to 1000 nM.

For `COc1cc([N+](=O)[O-])c2[nH]c(C(=O)Nc3ccc(/C(C)=N/NC(=N)N)cc3)cc2c1` [Compound 69], the EC50 was < 100 nM.

For `C/C(=N\NC(=N)N)c1ccc(NC(=O)c2ccc3c(c2)CCC/C3=N\NC(=N)N)cc1` [Compound 79], the half-maximal effective concentration (EC50) is 1000 to 10000 nM.

Regarding `C/C(=N\NC(=N)N)c1ccc2[nH]c(C(=O)Nc3ccc4[nH]c(C)cc4c3)cc2c1` [Compound 109], the concentration for a half-maximal effect (EC50) was in the range of 300 to 1000 nM.

As to `C/C(=N\NC(=N)N)c1ccc2[nH]c(C(=O)Nc3ccc4nc(C)ccc4c3)cc2c1` [Compound 125], the EC50 fell in the range of 100 to 300 nM.

Molecule `CSc1ccc2cc(C(=O)Nc3ccc(/C(C)=N/NC(=N)N)cc3)[nH]c2c1` [Compound 91] showed an EC50 of 300 to 1000 nM.

`C/C(=N/NC(=N)N)c1ccc(NC(=O)Nc2ccc(/C(C)=N/NC(=N)N)cc2)cc1C` [Compound 61]: the concentration giving a half-maximal response (EC50) was > 10000 nM.

Molecule `COc1cc2cc(C(=O)Nc3ccc(/C(C)=N/NC(=N)N)cc3)[nH]c2cc1OC` [Compound 73] displayed a 50% effective concentration (EC50) of 300 to 1000 nM.

Consider `COc1cc2cc(C(=O)Nc3ccc(/C(C)=N/NC(=N)N)cc3)[nH]c2cc1NC(C)=O` [Compound 98], for which the half-maximal effective concentration (EC50) is 1000 to 10000 nM.

Molecule `C/C(=N\NC(=N)N)c1ccc2[nH]c(C(=O)Nc3ccc(C(N)=O)cc3)cc2c1` [Compound 115] gave an EC50 of 100 to 300 nM.

`C/C(=N\NC(=N)N)c1ccc(NC(=O)c2nc3ccccc3[nH]2)cc1` [Compound 100]: the concentration for a half-maximal effect (EC50) is > 10000 nM.

`CC(=O)Nc1cccc2cc(C(=O)Nc3ccc(/C(C)=N/NC(=N)N)cc3)[nH]c12` [Compound 76] displayed a 50% effective concentration (EC50) of 300 to 1000 nM.

`CCC/C(=N/NC(=N)N)c1ccc(NC(=O)c2cc3cc(OC)ccc3[nH]2)cc1` (single isomer, unassigned) [Compound 26]: the 50% effective concentration (EC50) lay in the range of 300 to 1000 nM.

With `C/C(=N\NC(=N)N)c1ccc(NC(=O)Nc2ccc(NC(=O)Nc3ccc(/C(C)=N/NC(=N)N)cc3)cc2)cc1` [Compound 39], the EC50 is < 100 nM.

Take `C/C(=N\NC(=N)N)c1ccc2[nH]c(C(=O)Nc3ccc4ncccc4c3)cc2c1` [Compound 101]: the EC50 was < 100 nM.

Regarding `CCC/C(=N/NC(=N)N)c1ccc(NC(=O)c2cc3cc(OC)ccc3[nH]2)cc1` (single isomer, unassigned) [Compound 24], the EC50 is < 100 nM.

`CC(=O)c1ccc(NC(=O)Nc2ccc(/C(C)=N/NC3=NCCN3)cc2)cc1` [Compound 66]: the EC50 is 100 to 300 nM.

On to `C/C(=N\NC(=N)N)c1ccc(NC(=O)c2cc3ccccc3cn2)cc1` [Compound 58], for which the EC50 lay within 1000 to 10000 nM.

For the molecule `COc1cccc2cc(C(=O)Nc3ccc(/C(C)=N/NC(=N)N)cc3)oc12` [Compound 31], the 50% effective concentration (EC50) is 300 to 1000 nM.

`C/C(=N\NC(=N)N)c1ccc2[nH]c(C(=O)Nc3cc(C)ccn3)cc2c1` [Compound 102]: the half-maximal effective concentration (EC50) was 1000 to 10000 nM.

Molecule `C/C(=N/N=C(\N)c1ccccn1)c1ccc(NC(=O)Nc2ccc(/C(C)=N/N=C(\N)c3ccccn3)cc2)cc1` [Compound 13] registered an EC50 of 300 to 1000 nM.

In turn, `C/C(=N\NC(=N)N)c1ccc2[nH]c(C(=O)Nc3ccc(C)cn3)cc2c1` [Compound 103] returned an EC50 of 1000 to 10000 nM.

`CCCC(=NNC(=N)N)c1ccc(NC(=O)Nc2ccc(C(CCC)=NNC(=N)N)cc2)cc1` [Compound 3]: the EC50 is < 100 nM.

`C/C(=N\NC(=N)N)c1ccc(NC(=O)c2cc3c(C)cccc3[nH]2)cc1` [Compound 97]: the concentration giving a half-maximal response (EC50) lay within 1000 to 10000 nM.

The molecule `C/C(=N\NC(=N)N)c1ccc(NC(=O)c2cc3ccc(N)cc3[nH]2)cc1` [Compound 83] gave an EC50 of 1000 to 10000 nM.

The molecule `C/C(=N/NC(=N)N)c1ccc(NC(=O)Nc2ccc(/C(C)=N/NC(=N)N)cc2)c2ccccc12` [Compound 60] gave an EC50 of 1000 to 10000 nM.

For the origin of these results see patent US8765802B2, “Kinase inhibitors, compositions thereof, and methods of use therewith” (Provid Pharmaceuticals, Inc., priority 2007, dated 2014).
